Data: patent publication US6288036A, “Bradykinin type peptides” (priority 1993, dated 2001)
*1 amine or outer side, *2 acyl side, *3 side chain or, on linkers, in order; H or OH if unused. Where a SMILES comes first, the peptide text is derived from it. Where no end group is shown, it is not given here. [ ]: non-standard residue; d: D form. The star is where a group is joined. X3 = O=C([C@@H]1C[C@H](Oc2ccc([N+](=O)[O-])cc2)CN1[*:1])[*:2]; X2 = O=C([C@@H]1C[C@H](Oc2ccccc2[N+](=O)[O-])CN1[*:1])[*:2]; Pro(cis-4-OPh) = O=C(O)[C@@H]1C[C@H](Oc2ccccc2)CN1; X1 = O=C([C@@H]1C[C@H](Sc2ccccc2)CN1[*:1])[*:2]; cisHyp = O=C(O)[C@@H]1C[C@H](O)CN1; Hyp = O=C(O)[C@@H]1C[C@@H](O)CN1; Cyclohexylmethyl = C1CCC(C*)CC1; dTic = O=C(O)[C@H]1Cc2ccccc2CN1

Columns and labels:
bradykinin receptor = target: T1, bradykinin receptor (Cavia porcellus, UniProt O70526); experiment: 3H-Bradykinin binding assay, guinea pig terminal ileum homogenate; conditions: competition with 3H-bradykinin (~0.3 nM), guinea pig terminal ileum membranes, 90 min ambient temperature
T1 construct: from tissue; host or cells: guinea pig terminal ileum, washed membrane homogenate
T1 sequence (O70526 1-372): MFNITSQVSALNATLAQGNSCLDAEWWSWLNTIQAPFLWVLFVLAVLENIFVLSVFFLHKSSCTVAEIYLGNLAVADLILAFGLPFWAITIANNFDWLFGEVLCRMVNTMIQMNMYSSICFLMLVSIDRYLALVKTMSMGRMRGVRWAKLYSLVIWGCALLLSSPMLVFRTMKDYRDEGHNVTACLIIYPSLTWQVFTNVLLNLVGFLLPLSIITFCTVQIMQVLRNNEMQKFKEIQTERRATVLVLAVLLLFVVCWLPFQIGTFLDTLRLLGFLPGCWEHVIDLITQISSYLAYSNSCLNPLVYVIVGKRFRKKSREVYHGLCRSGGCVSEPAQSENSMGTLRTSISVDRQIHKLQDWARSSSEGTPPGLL
Description: Binding of ^3 H-Bradykinin was preformed using the method of D. C. Manning, […], and […]. Pharmacol. Exp. Ther., (1986),237 504. The tissues used in the binding assay were terminal ileum from male Hartley guinea pigs (150-350 g). After dissection, tissues were placed in 20 vol of ice-cold buffer A (25 Mm TES containing 0.2 g/L of 1,10-phenanthroline adjusted to Ph 6.8 with ammonium hydroxide) and homogenized using a Ploytron Tissumizer at setting 6 for 15 sec. The homogenate was centrifuged at 50,000×g for 10 min, the supernatant discarded, and the pellet resuspended in ice-cold buffer A by homogenization with the Polytron. Each tissue was homogenized and centrifuged three times. The final pellet was resuspended in buffer A containing bovine serum albumin (1 g/L) and Bacitracin (0.14 g/L) to a final volume of 170 Ml/g of the original tissue weight. The binding assay consisted of 1 Ml in 12×75 mm polypropylene tubes: 50 uL ^3 H-bradykinin (20,000 dpm, ~0.3 Nm in the final assay volume), […] displacing drug in buffer A, and 750 Ul tissue homogenate. […] Tubes were incubated for 90 min at ambient temperature. The assays were terminated by filtration over Whatman GF/B glass fiber filters that had been pretreated for 2 hours with polyethyleneimine (2 g/L) using a Brandel Tissue Harvester, followed by washing with 4×1 Ml aliquots of ice-cold 50 Mm Tris, Ph 7.4. Filters were dissolved in Ready-Safe Fluor (Beckman) for at least 90 min before quantitation by liquid scintillation spectrometry. Kd values were determined using saturation binding and analysis by […]. Pharmacol. Methods, (1985), 213)], followed by LIGAND [[…], Anal. Biochem., (1980), 220]. Ki values were determined using competitive analysis followed by EBDA and LIGAND. The following test results were obtained.

[1] = target: T2, bradykinin receptors on intestinal (ileal longitudinal) smooth muscle (Cavia porcellus, UniProt O70526); experiment: Bradykinin antagonist activity on guinea pig ileal longitudinal smooth muscle (contraction, Schild analysis); type: cell-based; conditions: antagonism of bradykinin-induced contraction, guinea pig ileum longitudinal muscle, read-out: pA2 (converted)
T2 construct: The longitudinal muscle was separated from the underlying circular muscle; from tissue; host or cells: guinea pig ileal longitudinal smooth muscle strips
T2 sequence (O70526 1-372): T1 sequence (O70526 1-372)
Experimental: Determination of Bradykinin Antagonist Activity
Guinea pig intestine was removed and placed in a Petri dish containing Tyrodes solution and cut into 3-4 cm segments. The longitudinal muscle was separated from the underlying circular muscle using a cotton applicator (Paton and Zar, J. Physiol. (1968), 194:13). Muscle strips were connected to isometric force-displacement transducers (Grass or Gould) coupled to a physiograph and placed in tissue baths containing Tyrode's solution at 37° C. Each preparation was suspended under a resting tension of 2 g.
After equilibration of the tissues, appropriate volumes of bradykinin solutions were cumulatively added to the 10 Ml tissue baths to increase the concentration of bradykinin in the bath step-by-step without washing out after each single dose. Higher concentrations were added only after the preceding contraction had reached a steady value. […] Antagonism of bradykinin responses in the presence of antagonist were determined by repeating the cumulative addition procedure for bradykinin after the tissue has been exposed to the antagonist for 5 minutes. Three or four differentconcentrations of antagonist are studied sequentially in the same preparations. Responses were expressed as a percentage of the maximum contraction elicited by bradykinin in the absence of antagonist. pA2 values were calculated by Schild analysis.

[2] = cited from earlier work
[3] = anesthetized rat, intra-aortic vs intravenous administration; cited from earlier work

Row | Molecule | Ki (bradykinin receptor) | Kb [1] | half life in the systemic circulation [2] | destruction on a single passage through the pulmonary circulation [3]
1 | CCO[C@@H]1C[C@@H](C(=O)N[C@@H](CCCNC(=N)N)C(=O)O)N(C(=O)[C@H]2Cc3ccccc3CN2C(=O)[C@H](CO)NC(=O)[C@H](Cc2ccccc2)NC(=O)CNC(=O)[C@@H]2C[C@@H](O)CN2C(=O)[C@@H]2CCCN2C(=O)[C@H](CCCNC(=N)N)NC(=O)[C@H](N)CCCNC(=N)N)C1 [D-Arg-Arg-Pro-4Hyp-Gly-Phe-Ser-D-Tic-(Hydroxyproline trans ethyl ether)-Arg] (H-[dR]RP[Hyp]GFS[dTic][Hyp](Et)R-OH) | 5.44 nM | 51.3 nM | – | –
2 | N=C(N)NCCC[C@@H](N)C(=O)N[C@@H](CCCNC(=N)N)C(=O)N1CCC[C@H]1C(=O)N1C[C@H](O)C[C@H]1C(=O)NCC(=O)N[C@@H](Cc1ccccc1)C(=O)N[C@@H](CO)C(=O)N1Cc2ccccc2C[C@@H]1C(=O)N1C[C@@H](Oc2ccccc2[N+](=O)[O-])C[C@H]1C(=O)N[C@@H](CCCNC(=N)N)C(=O)O [D-Arg-Arg-Pro-4Hyp-Gly-Phe-Ser-D-Tic-(hydroxyproline cis 2-nitrophenyl ether)-Arg] (H-[dR]RP[Hyp]GFS[dTic][X2]R-OH) | 3.76 nM | 141 nM | – | –
3 | N=C(N)NCCC[C@@H](N)C(=O)N[C@@H](CCCNC(=N)N)C(=O)N1CCC[C@H]1C(=O)N1C[C@H](O)C[C@H]1C(=O)NCC(=O)N[C@@H](Cc1ccccc1)C(=O)N[C@@H](CO)C(=O)N1Cc2ccccc2C[C@@H]1C(=O)N1C[C@@H](Oc2ccc([N+](=O)[O-])cc2)C[C@H]1C(=O)N[C@@H](CCCNC(=N)N)C(=O)O [D-Arg-Arg-Pro-4Hyp-Gly-Phe-Ser-D-Tic-(hydroxyproline cis 4-nitrophenyl ether)-Arg] (H-[dR]RP[Hyp]GFS[dTic][X3]R-OH) | 3.98 nM | 138 nM | – | –
4 | N=C(N)NCCC[C@@H](N)C(=O)N[C@@H](CCCNC(=N)N)C(=O)N1CCC[C@H]1C(=O)N1C[C@H](O)C[C@H]1C(=O)NCC(=O)N[C@@H](Cc1ccccc1)C(=O)N[C@@H](CO)C(=O)N1Cc2ccccc2C[C@@H]1C(=O)N1C[C@@H](OCC2CCCCC2)C[C@H]1C(=O)N[C@@H](CCCNC(=N)N)C(=O)O [D-Arg-Arg-Pro-4Hyp-Gly-Phe-Ser-D-Tic-(hydroxyproline cis cyclohexylmethyl ether)-Arg] (H-[dR]RP[Hyp]GFS[dTic][cisHyp](Cyclohexylmethyl)R-OH) | 13.2 nM | – | – | –
5 | CCO[C@H]1C[C@@H](C(=O)N[C@@H](CCCNC(=N)N)C(=O)O)N(C(=O)[C@H]2Cc3ccccc3CN2C(=O)[C@H](CO)NC(=O)[C@H](Cc2ccccc2)NC(=O)CNC(=O)[C@@H]2C[C@@H](O)CN2C(=O)[C@@H]2CCCN2C(=O)[C@H](CCCNC(=N)N)NC(=O)[C@H](N)CCCNC(=N)N)C1 [D-Arg-Arg-Pro-4Hyp-Gly-Phe-Ser-D-Tic-(hydroxyproline cis ethyl ether)-Arg] (H-[dR]RP[Hyp]GFS[dTic][cisHyp](Et)R-OH) | 4.15 nM | 110 nM | – | –
6 | N=C(N)NCCC[C@@H](N)C(=O)N[C@@H](CCCNC(=N)N)C(=O)N1CCC[C@H]1C(=O)N1C[C@H](O)C[C@H]1C(=O)NCC(=O)N[C@@H](Cc1ccccc1)C(=O)N[C@@H](CO)C(=O)N1Cc2ccccc2C[C@@H]1C(=O)N1C[C@@H](Oc2ccccc2)C[C@H]1C(=O)N[C@@H](CCCNC(=N)N)C(=O)O [D-Arg-Arg-Pro-4Hyp-Gly-Phe-Ser-D-Tic-(hydroxyproline cis phenyl ether)-Arg] (H-[dR]RP[Hyp]GFS[dTic][Pro(cis-4-OPh)]R-OH) | 2.51 nM | – | – | –
7 | N=C(N)NCCC[C@@H](N)C(=O)N[C@@H](CCCNC(=N)N)C(=O)N1CCC[C@H]1C(=O)N1C[C@H](O)C[C@H]1C(=O)NCC(=O)N[C@@H](Cc1ccccc1)C(=O)N[C@@H](CO)C(=O)N1Cc2ccccc2C[C@@H]1C(=O)N1C[C@@H](Sc2ccccc2)C[C@H]1C(=O)N[C@@H](CCCNC(=N)N)C(=O)O [D-Arg-Arg-Pro-4Hyp-Gly-Phe-Ser-D-Tic-(hydroxyproline cis phenyl thioether)-Arg] (H-[dR]RP[Hyp]GFS[dTic][X1]R-OH) | 0.06 nM | 11.2 nM | – | –
8 | CCCO[C@H]1C[C@@H](C(=O)N[C@@H](CCCNC(=N)N)C(=O)O)N(C(=O)[C@H]2Cc3ccccc3CN2C(=O)[C@H](CO)NC(=O)[C@H](Cc2cccs2)NC(=O)CNC(=O)[C@@H]2C[C@@H](O)CN2C(=O)[C@@H]2CCCN2C(=O)[C@H](CCCNC(=N)N)NC(=O)[C@H](N)CCCNC(=N)N)C1 [D-Arg-Arg-Pro-4Hyp-Gly-Thi-Ser-D-Tic-(Hydroxyproline cis propyl ether)-Arg] | 1.58 nM | 224 nM | – | –
9 | N=C(N)NCCC[C@@H](N)C(=O)N[C@@H](CCCNC(=N)N)C(=O)N1CCC[C@H]1C(=O)N1C[C@H](O)C[C@H]1C(=O)NCC(=O)N[C@@H](Cc1cccs1)C(=O)N[C@@H](CO)C(=O)N1Cc2ccccc2C[C@@H]1C(=O)N1C[C@H](OC(=O)Nc2ccccc2)C[C@H]1C(=O)N[C@@H](CCCNC(=N)N)C(=O)O [D-Arg-Arg-Pro-4Hyp-Gly-Thi-Ser-D-Tic-(Hydroxyproline trans phenyl carbamoyl)-Arg] | 11.5 nM | – | – | –
10 | CCCO[C@@H]1C[C@@H](C(=O)N[C@@H](CCCNC(=N)N)C(=O)O)N(C(=O)[C@H]2Cc3ccccc3CN2C(=O)[C@H](CO)NC(=O)[C@H](Cc2cccs2)NC(=O)CNC(=O)[C@@H]2C[C@@H](O)CN2C(=O)[C@@H]2CCCN2C(=O)[C@H](CCCNC(=N)N)NC(=O)[C@H](N)CCCNC(=N)N)C1 [D-Arg-Arg-Pro-4Hyp-Gly-Thi-Ser-D-Tic-(Hydroxyproline trans propyl ether)-Arg] | 4.85 nM | 138 nM | – | –
11 | CO[C@H]1C[C@@H](C(=O)N[C@@H](CCCNC(=N)N)C(=O)O)N(C(=O)[C@H]2Cc3ccccc3CN2C(=O)[C@H](CO)NC(=O)[C@H](Cc2cccs2)NC(=O)CNC(=O)[C@@H]2C[C@@H](O)CN2C(=O)[C@@H]2CCCN2C(=O)[C@H](CCCNC(=N)N)NC(=O)[C@H](N)CCCNC(=N)N)C1 [D-Arg-Arg-Pro-4Hyp-Gly-Thi-Ser-D-Tic-(hydroxyproline cis methyl ether)-Arg] | 1.83 nM | 141 nM | – | –
12 | RPPGFSPFR [bradykinin, Arg-Pro-Pro-Gly-Phe-Ser-Pro-Phe-Arg] | – | – | less than 30 seconds | 98-99%
